The source of these data is US6699682B2, “Assay for inhibitors of fatty-acid amide hydrolase” (The Scripps Research Institute, priority 1995, dated 2004).

For experiment [1], the target named is T1, FAAH activity of a rat brain membrane fraction (Rattus norvegicus, UniProt P97612).
T1 construct: Cis-9,10-octadecenoamide with rat brain membrane fraction +1 mM phenylmethylsulfonyl fluoride (PMSF); from tissue; host or cells: rat brain membrane fraction
T1 sequence (P97612 1-579): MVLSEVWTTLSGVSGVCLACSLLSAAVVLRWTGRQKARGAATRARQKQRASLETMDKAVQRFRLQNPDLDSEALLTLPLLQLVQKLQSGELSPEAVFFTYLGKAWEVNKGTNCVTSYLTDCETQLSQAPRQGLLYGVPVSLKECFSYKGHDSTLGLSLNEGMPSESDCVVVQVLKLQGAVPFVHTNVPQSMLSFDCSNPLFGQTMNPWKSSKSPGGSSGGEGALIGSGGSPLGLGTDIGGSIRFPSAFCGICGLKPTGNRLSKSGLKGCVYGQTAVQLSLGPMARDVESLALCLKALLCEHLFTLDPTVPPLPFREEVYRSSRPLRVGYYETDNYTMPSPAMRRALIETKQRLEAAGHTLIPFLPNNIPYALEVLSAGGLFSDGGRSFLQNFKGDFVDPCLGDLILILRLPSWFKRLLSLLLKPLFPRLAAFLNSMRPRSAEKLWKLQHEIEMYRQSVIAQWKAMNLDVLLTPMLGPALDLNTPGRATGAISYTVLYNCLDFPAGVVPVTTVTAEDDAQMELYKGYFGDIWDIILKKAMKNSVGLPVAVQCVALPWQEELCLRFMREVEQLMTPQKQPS
The format is biochemical. Conditions: rat brain membrane fractions, TLC. The protocol: In each case the enzymic reaction is performed is a separate reaction vessel and the product is spotted onto a TLC plate.

The next experiment has as its target T2, recombinant rat FAAH (Rattus norvegicus, UniProt P97612).
T2 construct: expressed in transfected cells; host or cells: COS-7 cells, transient, pcDNA3; dounce-homogenised cell extract
T2 sequence (P97612 1-579): T1 sequence (P97612 1-579)
The experiment is described as follows: oleamide hydrolase activity of rat FAAH-transfected COS-7 cell extract and its inhibition (TLC). It is filed as biochemical. Conditions: versus untransfected and control transfected cells. On the procedure:
The following thin layer chromatography (TLC) protocol is used for assaying cis-9,10 octadecenoamide hydrolysis activity, also referred to as fatty-acid amide hydrolase activity. Oleamide is first labeled with ^14C. To accomplish this, ^14C-Oleic acid (1-10 μM, Moravek Biochemicals, 5-50 μCi/μM) in CH2CL2 (200 μL, 0.005-0.05 M) at 0° C. was treated with excess oxalyl chloride and the reaction mixture was warmed to 25° C. for 6 hours. The reaction mixture was then concentrated under a constant stream of gaseous nitrogen and the remaining residue was cooled to 0° C. and treated with excess saturated aqueous ammonium hydroxide. After 5 minutes, the reaction mixture was partitioned between Et)Ac (1.5 mL) and 10% HCl (1.0 mL). The organic layer was then washed with water (1.0 mL) and concentrated under a constant stream of gaseous nitrogen to provide ^14C-oleamide in quantitative yield as judged by TLC (60% EtOAc in hexanes; oleamide Rf−0.2; oleic acid Rf−0.8). […]
While untransfected COS-7 cells contained negligible amounts of oleamide hydrolase activity, COS-7 cells transfected with the rat FAAH cDNA expressed high levels of oleamide hydrolase activity (FIG. 15A). The assay was performed as described in Section B where by TLC the conversion of oleamide to oleic acid was assessed. […]

In the case of `CCCCCCCC/C=C\CCCCCCCC(N)=O` [cis-9,10-octadecenoamide, Cis-9,10-octadecenoamide], in experiment [1], the “conversion of 14C-cis-9,10-octadecenoamide to oleic acid” value was “Rapid conversion”. The “conversion of labeled substrate by rat FAAH-transfected COS-7 cells (qualitative, TLC)” value on recombinant rat FAAH is “effective at converting labeled oleamide to oleic acid”.
